The record followed here is BindingDB's records for doi:10.7270/Q24T6GSH (The Scripps Research Institute Molecular Screening Center, 2007).

The first assay addresses T1, Isoform 2 of Nuclear receptor ROR-alpha (Alpha-2) (Homo sapiens, UniProt P35398).
T1 sequence (P35398 whole entry): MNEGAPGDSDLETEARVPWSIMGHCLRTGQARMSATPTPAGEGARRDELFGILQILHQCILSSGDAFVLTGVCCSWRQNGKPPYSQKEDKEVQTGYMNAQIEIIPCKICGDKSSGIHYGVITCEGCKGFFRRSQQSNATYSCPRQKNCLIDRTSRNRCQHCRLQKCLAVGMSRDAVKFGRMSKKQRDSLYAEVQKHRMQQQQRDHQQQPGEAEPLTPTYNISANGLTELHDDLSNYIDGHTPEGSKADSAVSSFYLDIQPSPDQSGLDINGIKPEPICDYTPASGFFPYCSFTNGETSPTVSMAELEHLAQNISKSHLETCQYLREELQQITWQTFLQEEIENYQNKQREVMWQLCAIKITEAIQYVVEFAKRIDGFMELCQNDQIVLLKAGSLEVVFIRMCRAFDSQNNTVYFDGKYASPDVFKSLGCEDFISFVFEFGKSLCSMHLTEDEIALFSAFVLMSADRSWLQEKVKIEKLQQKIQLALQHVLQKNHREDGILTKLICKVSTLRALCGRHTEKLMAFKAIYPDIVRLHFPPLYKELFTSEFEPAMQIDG
The assay is described as follows: activators of RORA ligand-binding domain fusion – cell-based, CHO-K1, Gal4-RORA LBD, luciferase luminescence, counter-screen for SF-1 activator project, dose response (AID 675).
Conditions: not given
Usually EC50 stands for the midpoint of the concentration-response curve. With `COc1ccc(C(=O)CC=Nc2cccc(C)n2)cc1OC`, the EC50 turned out to be 749 nM.

`CC(=O)c1c(C)[nH]c(C(=O)Nc2ccc3c(c2)OCCO3)c1C` displayed a concentration giving a half-maximal response (EC50) of 400 nM. This EC50 lies about 1.9-fold lower than the previous one.

`COc1ccc2c(c1OC)C(=O)N1c3ccccc3SC21` (configuration not stated) [1,2-dimethoxy-4bH-isoindolo[1,2-b][1,3]benzothiazol-11-one]: the EC50 amounted to 766 nM.

Consider `O=C(CSc1ccccn1)c1ccc2c(c1)OCO2` [1-(1,3-benzodioxol-5-yl)-2-(2-pyridinylthio)ethanone], for which the EC50 worked out at 1230 nM.

For the compound `O=C(COc1ncnc2ccccc12)c1ccc2c(c1)OCCO2` [1-(2,3-dihydro-1,4-benzodioxin-6-yl)-2-(4-quinazolinyloxy)ethanone], the EC50 is 615 nM.

With `CCCn1c(C)cc(C(=O)COc2ncnc3sccc23)c1C` [1-(2,5-dimethyl-1-propyl-3-pyrrolyl)-2-(4-thieno[2,3-d]pyrimidinyloxy)ethanone], the EC50 was 1990 nM.

In turn, `N#CCc1ccc(NC(=O)Nc2cccc(Cl)c2)cc1` [1-(3-chlorophenyl)-3-[4-(cyanomethyl)phenyl]urea] displayed an EC50 of 1650 nM.

Turning to `CN(C)c1ccc(NC(=O)Nc2cccc(Cl)c2)cc1` [1-(3-chlorophenyl)-3-[4-(dimethylamino)phenyl]urea], the EC50 was more than 407 nM.

For `Clc1ccc(-n2ncc3c(NCc4ccccn4)ncnc32)cc1` [1-(4-chlorophenyl)-N-(2-pyridinylmethyl)-4-pyrazolo[3,4-d]pyrimidinamine], the EC50 worked out at 2290 nM.

Turning to `COc1ccc2nc(Nc3nc(C)c(C(C)=O)s3)sc2c1` [1-[2-[(6-methoxy-1,3-benzothiazol-2-yl)amino]-4-methyl-1,3-thiazol-5-yl]ethanone], the EC50 is more than 1220 nM.

As to `O=C(Cc1ccccc1)n1nc(-c2ccccc2)nc1NCc1ccco1` [1-[5-(2-furanylmethylamino)-3-phenyl-1,2,4-triazol-1-yl]-2-phenylethanone], the EC50 was more than 11000 nM.

Compound `CCOC(=O)C1CCN(S(=O)(=O)c2ccc(-c3nc4ccccc4s3)s2)CC1` [1-[[5-(1,3-benzothiazol-2-yl)-2-thienyl]sulfonyl]isonipecotic acid ethyl ester] returned an EC50 of 1720 nM. In other words, the single-digit micromolar range.

`COc1ccc2c(c1)CCc1c(C(=O)N3CCCCCC3)noc1-2` [1-azepanyl-(7-methoxy-4,5-dihydrobenzo[g][1,2]benzoxazol-3-yl)methanone] returned a half-maximal effective concentration (EC50) of 1570 nM.

Consider `COc1ccc(CNC(=O)NC2CCCCC2)cc1` [1-cyclohexyl-3-[(4-methoxyphenyl)methyl]urea], for which the EC50 was more than 99000 nM.

Regarding `COc1ccc(-c2cc(C(=O)N3CCCCC3)no2)cc1OC` [1-{[5-(3,4-dimethoxyphenyl)isoxazol-3-yl]carbonyl}piperidine], the EC50 worked out at 3920 nM.

The compound `Cc1cc(C(=O)OCC(=O)N2CCc3ccccc32)c(C)o1` [2,5-dimethyl-3-furancarboxylic acid [2-(2,3-dihydroindol-1-yl)-2-oxoethyl] ester] registered an EC50 of 897 nM. Against the preceding compound, the EC50 is about 4.4-fold lower.

The compound `CC(C)(C)n1ncc2c(=O)n(CC(=O)NCc3ccccc3Cl)cnc21` [2-(1-tert-butyl-4-keto-pyrazolo[3,4-d]pyrimidin-5-yl)-N-(2-chlorobenzyl)acetamide] registered a 50% effective concentration (EC50) of more than 136 nM.

`COc1cc(N2CCCC2)c(OC)cc1C=c1sc2nc3ccccc3n2c1=O` [2-(2,5-dimethoxy-4-pyrrolidino-benzylidene)thiazolo[3,2-a]benzimidazol-1-one] showed an EC50 of 11000 nM. This counts as double-digit micromolar.

The compound `CCn1c(SCC(=O)c2cccs2)nnc1-c1ccco1` [2-(4-Ethyl-5-furan-2-yl-4H-[1,2,4]triazol-3-ylsulfanyl)-1-thiophen-2-yl-ethanone] registered an EC50 of 5820 nM.

In turn, `CN(C)c1oc(-c2ccc(OCc3ccccc3)cc2)nc1C#N` [2-(4-benzoxyphenyl)-5-(dimethylamino)oxazole-4-carbonitrile] gave an EC50 of 2220 nM.

In the case of `CCOc1ccc(N2C(=O)c3ccccc3C2O)cc1` (configuration not stated) [2-(4-ethoxyphenyl)-3-hydroxy-3H-isoindol-1-one], the EC50 worked out at 886 nM.

`O=C(CSc1nc2ccccc2o1)Nc1nc2ccccc2s1` [2-(Benzooxazol-2-ylsulfanyl)-N-benzothiazol-2-yl-acetamide] returned a concentration giving a half-maximal response (EC50) of more than 11000 nM.

For the compound `Cc1cccc(-n2ccnc2SCC(=O)Nc2nccs2)c1` [2-[1-(3-methylphenyl)imidazol-2-yl]sulfanyl-N-(1,3-thiazol-2-yl)acetamide], the EC50 was more than 11000 nM.

The compound `C=CCn1c(C)cc(C(=O)CSc2nc(O)c3ccccc3n2)c1C` [2-[2-(2,5-dimethyl-1-prop-2-enyl-pyrrol-3-yl)-2-oxidanylidene-ethyl]sulfanyl-1H-quinazolin-4-one] returned an EC50 of 609 nM.

`OCCOCCNc1ncnc2c1cnn2-c1ccc(Cl)cc1` [2-[2-[[1-(4-chlorophenyl)-4-pyrazolo[3,4-d]pyrimidinyl]amino]ethoxy]ethanol] gave an EC50 of 595 nM.

Compound `CCOC(=O)CSc1nc2ccccc2c(=O)n1NC(=O)c1ccccc1` [2-[(3-benzamido-4-keto-quinazolin-2-yl)thio]acetic acid ethyl ester] had an EC50 of 933 nM.

For `CCc1nnc(NC(=O)CSc2nc3c(cc2C#N)CCC3)s1` [2-[(3-cyano-1-pyrindan-2-yl)thio]-N-(5-ethyl-1,3,4-thiadiazol-2-yl)acetamide], the EC50 was more than 407 nM.

Take `CCOC(=O)CSc1nc(-c2ccncc2)ccc1C#N` [2-[(3-cyano-6-pyridin-4-yl-2-pyridinyl)thio]acetic acid ethyl ester]: the midpoint of the response, the EC50, lay at 1710 nM.

`Cc1csc2nc(CSc3nc4ccccc4o3)cn12` [2-[(3-methyl-6-imidazo[2,1-b]thiazolyl)methylthio]-1,3-benzoxazole] displayed an EC50 of 3920 nM.

`Nn1c(SCC(=O)Nc2ccc(F)cc2F)nnc1-c1cccnc1` [2-[(4-amino-5-pyridin-3-yl-1,2,4-triazol-3-yl)sulfanyl]-N-(2,4-difluorophenyl)acetamide] displayed an EC50 of 6790 nM.

The compound `CCc1nnc(NC(=O)CSc2nc(C)c3c(c2C#N)CCCC3)s1` [2-[(4-cyano-1-methyl-5,6,7,8-tetrahydroisoquinolin-3-yl)sulfanyl]-N-(5-ethyl-1,3,4-thiadiazol-2-yl)acetamide] returned an EC50 of 1230 nM.

As for `O=C1CCCC(=O)C1=CNc1ccc(O)cc1` [2-[(4-hydroxyanilino)methylidene]cyclohexane-1,3-dione], the EC50 is more than 99000 nM.

On to `CCOC(=O)CSc1nc(-c2ccc3c(c2)OCO3)ccc1C#N` [2-[[6-(1,3-benzodioxol-5-yl)-3-cyano-2-pyridinyl]thio]acetic acid ethyl ester], for which the midpoint of the response, the EC50, lay at 5650 nM.

In turn, `O=C(CNc1ccccc1)Nc1ccc(F)cc1` [2-anilino-N-(4-fluorophenyl)acetamide] registered an EC50 of 3190 nM.

Turning to `Cc1nc2sc(-c3ccccc3)cc2c(=O)n1-n1cccc1` [2-methyl-6-phenyl-3-(1-pyrrolyl)-4-thieno[2,3-d]pyrimidinone], the response was half-maximal at 112 nM (EC50).

In the case of `Cc1ccc(C(=O)Nc2nnc(-c3cccs3)s2)cc1C` [3,4-dimethyl-N-(5-thiophen-2-yl-1,3,4-thiadiazol-2-yl)benzamide], the EC50 was 786 nM.

`Cc1ccc(-n2c(C)cc(C(=O)COC(=O)c3c(C)noc3C)c2C)cc1` [3,5-dimethyl-4-isoxazolecarboxylic acid [2-[2,5-dimethyl-1-(4-methylphenyl)-3-pyrrolyl]-2-oxoethyl] ester] had an EC50 of 1630 nM.

Take `COc1cc(C2c3c(c(O)n(-c4ccccc4)c3O)ON2c2ccccc2)ccc1O` (configuration not stated) [3-(3-methoxy-4-oxidanyl-phenyl)-2,5-diphenyl-3a,6a-dihydro-3H-pyrrolo[3,4-d][1,2]oxazole-4,6-dione]: the EC50 is more than 33000 nM.

`COc1ccc2nc3sc(C(=O)NCc4cccs4)c(N)c3cc2c1` [3-Amino-6-methoxy-thieno[2,3-b]quinoline-2-carboxylic acid (thiophen-2-ylmethyl)-amide] displayed a half-maximal effective concentration (EC50) of more than 407 nM.

For `O=c1c2ccccc2nnn1CSc1nnc(COc2ccc(Cl)cc2)n1Cc1ccco1` [3-[[5-[(4-chloranylphenoxy)methyl]-4-(furan-2-ylmethyl)-1,2,4-triazol-3-yl]sulfanylmethyl]-1,2,3-benzotriazin-4-one], a half-maximal response (EC50) required 3690 nM.

In turn, `COc1cccc(C(=O)Nc2cccc(-c3nnc(-c4ccccc4)o3)c2)c1` [3-methoxy-N-[3-(5-phenyl-1,3,4-oxadiazol-2-yl)phenyl]benzamide] yielded an EC50 of 1730 nM.

Compound `COc1ccc(-c2nc3c(Br)c(N)c(Br)cc3o2)cc1` [4,6-bis(bromanyl)-2-(4-methoxyphenyl)-1,3-benzoxazol-5-amine] yielded an EC50 of 693 nM. This EC50 lies about 2.5-fold lower than the previous one.

Turning to `COc1ccc(CNc2ccc(C(=O)O)cc2)cc1` [4-(p-anisylamino)benzoic acid], a half-maximal response (EC50) required 1500 nM. This EC50 lies about 2.2-fold higher than the previous one.

Compound `CCCOC(=O)c1ccc(NC(=O)C2CCCO2)cc1` (configuration not stated) [4-(tetrahydrofuran-2-carbonylamino)benzoic acid propyl ester] had an EC50 of more than 3670 nM.

The compound `COc1cccc2c(O)c(C(=O)NCc3cccs3)cnc12` [4-Hydroxy-8-methoxy-quinoline-3-carboxylic acid (thiophen-2-ylmethyl)-amide] came in with an EC50 of 3120 nM.

Still in this assay, the particulars now being: inactive by the depositor's call.
Compound `Fc1cnc(N2CCOCC2)nc1N1CCc2ccccc21` [1-[5-fluoro-2-(4-morpholinyl)-4-pyrimidinyl]indoline] had an EC50 of 10200 nM.

As for `c1ccc2nc3c(nc2c1)c1ccccc1n3CCN1CCOCC1` [4-(2-indolo[3,2-b]quinoxalin-6-ylethyl)morpholine], the EC50 turned out to be 11300 nM.
